One series deals with HCT-116 p53−/− cells. In words: γH2AX foci staining to indicate DNA damage (genotoxicity). It is filed as cell-based. As to the method: FIG. 1. TMPK knockdown has no genotoxicity but promoting doxorubicin-induced cell death in p53 proficient and deficient colon cancer cells. […] These cells were fixed for γH2AX foci staining to indicate DNA damage and Western blotting analysis. (B-C) FITC-labeled annexin V apoptosis assay. (B) p53(+/+) HCT-116 were and (−/−) HCT-116 cells were infected with or without lentiviral TMPK^shRNA for 72 hr, treated with 0.5 μM doxorubicin for 24 hr (C) Cells were with or without lentiviral TS^shRNA for 72 hr with a subsequent 1 μM doxorubicin treatment for 24 hr as indicated Cells were then stained with FITC-labeled annexin V and observed by fluorescent microscopy. Green-positive indicates apoptotic cell.
For γH2AX staining, cells were fixed with 4% paraformaldehyde for 30 min at room temperature and were incubated with TBS (50 mM Tris-HCl, pH 7.4, 150 mM NaCl) plus 0.3% Triton X-100 for 5 min. The coverslips were blocked with MAXblock™ (Active Motif) for 1 h at 37° C., followed by staining with primary antibodies: anti-γH2AX monoclonal antibody (1:1000), anti-Rad51 polyclonal
To understand the differential DNA damage effect of blocking thymidylate kinase (TMPK) and thymidylate synthase (TS) in colon cancer cells. TMPK or TS expression was depleted in colon cancer cells, HCT-116 p53^−/−, by infection with lentivirus expressing corresponding shRNA. […]

The target in series [1] is T1, hTMPK (Homo sapiens, UniProt P23919).
T1 sequence (P23919 1-212): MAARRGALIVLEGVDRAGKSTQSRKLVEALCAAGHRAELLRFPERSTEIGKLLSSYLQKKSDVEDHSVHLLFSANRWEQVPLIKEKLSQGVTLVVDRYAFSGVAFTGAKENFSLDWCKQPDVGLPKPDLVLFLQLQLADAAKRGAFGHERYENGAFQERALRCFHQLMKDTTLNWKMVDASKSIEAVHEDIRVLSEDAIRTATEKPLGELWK
In words: IC50 determination by enzymatic assay. It counts as biochemical. The method, then:
(§1) The TMPK reaction was started by adding purified hTMPK in 50 μl of TMPK assay buffer (100 mM Tris-HCl, pH 7.5, 100 mM KCl, 10 mM MgCl2, 50 μM ATP and 100 μM dTMP) in 96 wells plate at 25° C. for 10 min and terminated by adding 200 μl of DTNB (100 μM), followed by transferring 10 μl of reaction solution to a white 96-wellplate containing 90 μl of luciferase assay buffer (50 mM Glycine, 0.5 mM EDTA and 5 mM EDTA, pH 7.0, 0.1 μg of luciferase, 50 μM luciferin and 0.1% BSA). The luminescence was measured with a luminescence counter (Packard).
(§2) All reactions were performed in 96-well plates in an assay volume of 100 μl. The activity of hTMPK was measured at 25° C. using a modified NADH coupled colorimetric assay as described (Agarwal et al., 1978; Miyata et al., 2003; Ostermann et al., 2003), in which purified hTMPK was added to the buffer containing 100 mM Tris-HCl, pH 7.5, 100 mM KCl, 10 mM MgCl2, 0.5 mM phosphoenol pyruvate, 0.25 mM NADH, 5 units of lactate dehydrogenase, 4 units of pyruvate kinase, 1 mM ATP, and 200 μM dTMP. The change of NADH was measured by reading the absorbance at 340 nm. One unit of TMPK activity is defined as the conversion of […] of TMP to TDP per minute.
In one embodiment, the IC50 values were determined by enzymatic assay.

The target in series [2] is T1, hTMPK. In words: In vitro inhibitory activity against human TMPK at 2 μM. The note with it: test compounds at 2 μM concentration. It counts as biochemical. The method, then: as §1, §2
The in vitro inhibitory activities of test compounds (at 2 μM concentration) against human TMPK are shown in Table 3 and compared with that of YMU1 and YMU2.

The target in series [3] is T1, hTMPK. In words: Inhibition constant (Ki) by NADH-coupled TMPK assay. It counts as biochemical. The note with it: pre-incubated with 0.5 μg purified hTMPK for 10 min. The method, then: as §2
For determination of inhibition constant (Ki value), the inhibitor at the indicated concentration was pre-incubated with 0.5 μg of purified hTMPK protein for 10 min, and the initial velocity of the TMPK reaction was measured in the presence of ATP (1 mM) and different concentrations of TMP (2-200 μM) or in the presence of TMP (200 μM) and different concentrations of ATP (5-1000 μM) using NADH-coupled TMPK assay as described in the Methods of the Invention section. The Ki value was calculated from an equation of Ki=[I]/(Vmax/Vmax^I−1) wherein [I] is the concentration of inhibitor, and Vmax^I is the maximal velocity in the presence of inhibitor.

In series [4] the test system is Human RM osteosarcoma cells. In words: Colony formation analysis of osteosarcoma cells. It is filed as cell-based. The note with it: for effect on suppressing colony formation, single agent: compound 5 μM or doxorubicin 20 nM alone, 2 days, replated for 1 week; for colony formation, combination with doxorubicin: compound 5 μM plus doxorubicin 20 nM. The method, then: FIG. 5. The effect of TMPK inhibitors alone or in combination with a chemotherapeutic agent on viability of osteosarcoma cells. (A) Human RM osteosarcoma cells (a representative bone cancer cells) were seeded at 2×10^4/35 mm dish and treated with Doxorubicin (20 nM), compound I-d-7 (5 μM), compound I-d-6 (5 μM) as indicated. After 2 days, medium was replaced with fresh medium without drug and cells were replated to a 24-well plate at 600 cells/well for 1 week for colony formation analysis.

A further series concerns MDA-MB231 cell. In words: Doxorubicin sensitization in MDA-MB231 cell treatment. It counts as cell-based. Conditions: compound at 2 μM. As to the method: Cells plated into a 96-well plate (10^3 cells/well) were treated and cell viability was measured by MTS assay (Promega) (Cory et al., 1991). An annexin V-fluorescein isothiocyanate (FITC) apoptosis kit (Calbiochem) was used to detect apoptosis.

Here are results for 12 compounds from US9662328B2, “Targeting human thymidylate kinase induces DNA repair toxicity in malignant tumor cells” (NATIONAL YANG-MING UNIVERSITY, priority 2010, dated 2017).

A word on the IC50: it is the concentration needed to halve the response being measured. The low end stands for inhibition by little substance, the high end for a need for much substance. As a reminder, the inhibition is the relative decrease from the control value, in per cent. Higher therefore signals a response far below the control. The Ki is a measure of affinity in units of concentration, obtained from inhibition or displacement. The low end stands for a stronger hold on the target, the high end for a looser hold on the target.

Values joined by “and” are separate entries in the source; they are usually repeats but may differ in a detail not shown here. Equal entries are not always repeated.

With `O=c1[nH]c(=O)n([C@H]2C[C@H](O)[C@@H](CO)O2)cc1F` [FdUrd, 5-fluoro-2′deoxyuridine], the “DNA lesions in nuclei (γH2AX foci)” value in the series on HCT-116 p53−/− cells (YMU1 2 μM for 2 days, FdUrd 2 μM for 1 day) is recorded as “gave DNA lesions in nuclei”.

Consider `O=C(NCC(=O)N1CCN(C(=O)Cn2sc3ncccc3c2=O)CC1)Nc1ccccc1` [I-b-1, 1-(2-Oxo-2-(4-(2-(3-oxoisothiazolo[5,4-b]pyridin-2(3H)-yl)acetyl)piperazin-1-yl)ethyl)-3-phenylurea], for which the midpoint of inhibition against hTMPK [1], the IC50, lay at 1.81 ± 0.28 µM. Besides, at hTMPK [2], the inhibition at 2 µM worked out at 54 ± 7%.

`Cc1cc(C)c2c(=O)n(CC(=O)N3CCN(C(=O)Cn4sc5nc(C)cc(C)c5c4=O)CC3)sc2n1` [I-b-4, 1,4-Bis[(3-oxo-4,6-dimethylisothiazolo[5,4-b]pyridin-2-yl)acetyl]piperazine] registered an IC50 against hTMPK [1] of 0.8 µM. This compound returned an inhibition at 2 µM on hTMPK [2] of 32 ± 2%.

For `Cc1cc(C)c2c(=O)n(CC(=O)N3CCN(C(=O)Cn4sc5ccccc5c4=O)CC3)sc2n1` [I-b-5, 4-[(3-Oxo-benzo[d]isothiazol-2-yl)acetyl]-1-[(4,6-dimethyl-3-15 oxoisothiazolo[5,4-b]pyridin-2-yl)acetyl]piperazine], on hTMPK [3], the affinity, expressed as Ki, was 0.17 ± 0.07 µM. At hTMPK [2], this compound had an inhibition at 2 µM of 79 ± 12%.

At hTMPK [1], `Cc1cc(N)nc2sn(CC(=O)N3CCN(C(=O)Cn4sc5nc(N)cc(C)c5c4=O)CC3)c(=O)c12` [I-b-6, 1,4-Bis[(6-amino-4-methyl-3-oxoisothiazolo[5,4-b]pyridin-2-yl)acetyl]piperazine] came in with an IC50 of 1.1 µM. On hTMPK [2], this compound showed an inhibition at 2 µM of 48 ± 5%.

Turning to `CC(C)(C)OC(=O)N1CCN(C(=O)Cn2sc3ccc(F)cc3c2=O)CC1` [I-d-6, Tert-butyl 4-(2-(5-fluoro-3-oxobenzo[d]isothiazol-2(3H)-yl)acetyl)piperazine-1-carboxylate], in series [4], the “effect on suppressing colony formation, single agent” value (“effect” for short) is “significant effect on suppressing colony formation” and the “colony formation, combination with doxorubicin” value is recorded as “further decreased colony formation”. On hTMPK [2], the inhibition at 2 µM is 87 ± 5%.

In the case of `CC(C)(C)OC(=O)N1CCN(C(=O)Cn2sc3cc(F)ccc3c2=O)CC1` [I-d-7, Tert-butyl 4-(2-(6-fluoro-3-oxobenzo[d]isothiazol-2(3H)-yl)acetyl)piperazine-1-carboxylate], in series [4], the “effect” value is listed as “significant effect on suppressing colony formation” and the “colony formation, combination with doxorubicin” value is “further decreased colony formation”. The compound further came in with an inhibition at 2 µM on hTMPK [2] of 66 ± 7%.

Turning to `O=C(NCC(=O)N1CCN(C(=O)Cn2sc3ccccc3c2=O)CC1)Nc1ccccc1` [I-e-5, 1-(2-Oxo-2-(4-(2-(3-oxobenzo[d]isothiazol-2(3H)-yl)acetyl)piperazin-1-yl)ethyl)-3-phenylurea], the IC50 against hTMPK [1] was 1.29 µM and 1.73 µM. The same compound returned an inhibition at 2 µM against hTMPK [2] of 100 ± 7%.

With `O=C(Cn1sc2ccccc2c1=O)N1CCN(C(=O)Cn2sc3ccccc3c2=O)CC1` [I-e-8, 1,4-Bis[(3-oxo-benzo[d]isothiazol-2-yl)acetyl]piperazine], the IC50 on hTMPK [1] came to 0.45 µM. In addition, at hTMPK [2], at 2 µM the inhibition was 89 ± 6%.

In the case of `CCOC(=O)N1CCN(C(=O)Cn2sc3nc(C)cc(C)c3c2=O)CC1` [YMU1, reference compound], on hTMPK [1], half-maximal inhibition (IC50) was put at 2.21 ± 0.06 µM. Also, the “DNA lesions in nuclei (γH2AX foci)” value in the series with HCT-116 p53−/− cells (human, 2 μM) is “not”. Further, 2 µM produced 42 ± 15% inhibition against hTMPK [2].

Consider `CCOC(=O)N1CCN(C(=O)Cn2sc3nc(C)cc(C)c3c2=O)CC1` [YMU1], for which, in the series on MDA-MB231 cell, the “enhancement on doxorubicin sensitization” value was 30 fold.

As for `COc1cccc2c1C(=O)c1c(O)c3c(c(O)c1C2=O)C[C@@](O)(C(=O)CO)C[C@@H]3O[C@H]1C[C@H](N)[C@H](O)[C@H](C)O1` [doxorubicin, reference compound], the “effect” value in series [4] is listed as “no effect”.
